Reference: patent publication US9302967B2, “Substituted cathechols as inhibitors of IL-4 and IL-5 for the treatment of bronchial asthma” (Council of Scientific & Industrial Research, priority 2011, dated 2016)
Read-outs that look alike come from different tables or passages of the source.

Tests used:
[1] = set-up: species or system mice; conditions: mouse, in vivo
Procedure: 14 d acute oral toxicity of compound 1 of formula I was performed. Three doses were selected: 47, 23, 12 and 0 mg/kg bw (Vehicle control) of compound 1 of formula I was administered by single oral gavage using blunt ended steel canula.
Before sacrifice, blood was drawn from the retro-orbital sinus of mice and rats with the help of non-heparinised capillary tubes and hematological parameters were assessed with the help of Automatic Hematology Analyzer (Medonic).

[2] = system: oral KB carcinoma cell line; conditions: cited from earlier work
[3] = 90 d sub-chronic oral toxicity: immunotoxicity; assay type: in vivo
Procedure: (§1) Immunotoxicity in mice was performed in accordance to EPA guideline (1998). […] Humoral immunity was measured in terms of HA titer and plaque forming cell assay. […] Cell mediated immunity was measured in terms of % increase in paw volume in mice sensitized with SRBC.
Earlier, LD50 of ICB 14 C6 was derived from in vitro cytotoxicity assay by NRUmethod in 3T3 cells. […] For 90d sub-chronic toxicity study the highest dose selected was one-fourth of the limit dose. Four different doses of ICB14 C6 (47, 23, 12 and 0 [vehicle] mg/kg body weight) were prepared in ground nut oil daily for 5 days a week for 90d.

[4] = 14 d acute oral toxicity: immunotoxicity (EPA guideline 1998); assay type: in vivo, mice; conditions: for Bone marrow cell viability % / Lymph node lymphocyte viability % (pooled) / Splenocyte viability %: 14 d acute
Procedure: 14 d acute oral toxicity of compound 1 of formula I was performed. […]
as §1

[5] = target: T1, COX-2 (Homo sapiens, UniProt P35354); conditions: cited from earlier work
T1 sequence (P35354 18-604): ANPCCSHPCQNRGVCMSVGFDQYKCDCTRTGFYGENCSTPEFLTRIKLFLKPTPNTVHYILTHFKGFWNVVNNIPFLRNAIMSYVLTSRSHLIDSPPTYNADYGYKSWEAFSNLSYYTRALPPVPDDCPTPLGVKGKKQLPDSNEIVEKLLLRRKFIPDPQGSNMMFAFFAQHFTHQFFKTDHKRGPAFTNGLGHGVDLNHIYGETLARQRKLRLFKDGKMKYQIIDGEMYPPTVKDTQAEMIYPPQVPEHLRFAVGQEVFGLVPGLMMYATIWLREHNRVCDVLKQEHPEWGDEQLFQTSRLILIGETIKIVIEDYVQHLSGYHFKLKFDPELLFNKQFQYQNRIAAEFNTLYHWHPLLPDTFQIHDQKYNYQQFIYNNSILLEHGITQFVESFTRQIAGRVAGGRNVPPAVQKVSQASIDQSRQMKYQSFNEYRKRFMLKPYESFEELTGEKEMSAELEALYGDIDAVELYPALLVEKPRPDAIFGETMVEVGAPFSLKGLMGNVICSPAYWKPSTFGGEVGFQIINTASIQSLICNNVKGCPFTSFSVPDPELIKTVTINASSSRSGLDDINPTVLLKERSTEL

## C=CCc1ccc(O)c(O)c1 [Compound 1, 4-allyl-benzene-1,2-diol]
[1]; 12 mg/kg
  GRAN: 9.82 ± 3.49%
  HCT: 39.72 ± 5.27%
  HGB: 12.6 ± 2.50 g/dL
  LYMF: 8.54 ± 14.39%
  MCV: 41.76 ± 1.268 μm^3
  MPV: 6.96 ± 0.33 μm^3
  PLT: 588 ± 198 10^3/mm^3
  RBC: 9.52 ± 1.313 ×10^6/mm^3
  WBC: 9.1 ± 0.86 ×10^3/mm^3
[1]; 23 mg/kg
  GRAN: 10.8 ± 2.30%
  HCT: 42.05 ± 7.86%
  HGB: 13.22 ± 1.72 g/dL
  LYMF: 2.12 ± 3.45%
  MCV: 41.675 ± 2.069 μm^3
  MPV: 6.95 ± 0.36 μm^3
  PLT: 518 ± 40 10^3/mm^3
  RBC: 10.05 ± 1.477 ×10^6/mm^3
  WBC: 13.52 ± 2.71 ×10^3/mm^3
[1]; 47 mg/kg
  GRAN: 9.46 ± 2.33%
  HCT: 39.12 ± 1.76%
  HGB: 13.2 ± 0.65 g/dL
  LYMF: 1.0 ± 0.87%
  MCV: 40.45 ± 1.126 μm^3
  MPV: 7.1 ± 0.32 μm^3
  PLT: 476.5 ± 124^ 10^3/mm^3
  RBC: 9.74 ± 0.749 ×10^6/mm^3
  WBC: 11.02 ± 2.61 ×10^3/mm^3
[2]
  cell cycle arrest and apoptosis: induce cell cycle arrest and apoptosis
[3]; 90 d, 12 mg/kg bw
  Bone marrow cell viability %: 97.26 ± 0.88%
  Lymph node lymphocyte viability % (pooled): 97.40 ± 0.61%
  Splenocyte viability %: 96.79 ± 0.36%
[3]; 90 d, 23 mg/kg bw
  Bone marrow cell viability %: 96.80 ± 1.15%
  Lymph node lymphocyte viability % (pooled): 98.28 ± 0.80%
  Splenocyte viability %: 96.56 ± 0.80%
[3]; 90 d, 47 mg/kg bw
  Bone marrow cell viability %: 95.45 ± 0.31%
  Lymph node lymphocyte viability % (pooled): 98.17 ± 0.05%
  Splenocyte viability %: 96.45 ± 0.62%
[3]; 90 d, all the groups
  Lymph node lymphocyte, splenocytes and bone marrow cell viabilities: > 94%
[3]; mouse, in vivo
  B cell function (PFC): Dose dependant decrease in B cell function
[3]; mouse, in vivo, 12 mg/kg
  Total IgA: 264.25 ± 28.6 ng/mL
  Total IgE: 0.69 ± 0.115
  Total IgG: 12.98 ± 0.53 mg/mL
  Total IgM: 6.65 ± 0.13
[3]; mouse, in vivo, 12 mg/kg, 90 d
  DTH response (% increase in paw volume): 12.12 ± 2.96%
  HA tire (reciprocal of the last dilution showing positive reaction): 1280
  PFC: 5533 ± 437 per 10^6lymphocytes
[3]; mouse, in vivo, 23 mg/kg
  Total IgA: 207.25 ± 9.7 ng/mL
  Total IgE: 0.74 ± 0.23
  Total IgG: 15.21 ± 0.31 mg/mL
  Total IgM: 0.57 ± 0.17
[3]; mouse, in vivo, 23 mg/kg, 90 d
  DTH response (% increase in paw volume): 11.55 ± 3.77%
  HA tire (reciprocal of the last dilution showing positive reaction): 640
  PFC: 4911 ± 873 per 10^6lymphocytes
[3]; mouse, in vivo, 47 mg/kg
  Total IgA: 167 ± 2.12 ng/mL
  Total IgE: 0.65 ± 0.09
  Total IgG: 6.11 ± 0.25 mg/mL
  Total IgM: 1.02 ± 0.30
[3]; mouse, in vivo, 47 mg/kg, 90 d
  DTH response (% increase in paw volume): 11.28 ± 3.69%
  HA tire (reciprocal of the last dilution showing positive reaction): 320
  PFC: 1849 ± 780 per 10^6lymphocytes
[4]; 12 mg/kg bw
  Bone marrow cell viability %: >98%
  Lymph node lymphocyte viability % (pooled): >98%
  Splenocyte viability %: 97.69 ± 0.96%
[4]; 23 mg/kg bw
  Bone marrow cell viability %: >98%
  Lymph node lymphocyte viability % (pooled): >98%
  Splenocyte viability %: 97.64 ± 0.73%
[4]; 47 mg/kg bw
  Bone marrow cell viability %: >98%
  Lymph node lymphocyte viability % (pooled): >98%
  Splenocyte viability %: 98.25 ± 0.92%
[4]; mouse, in vivo
  DTH response (cell mediated immunity): insignificant changes in the DTH response
  viability of bone marrow cells, splenocyte and lymph node lymphocyte (trypan blue): No significant changes
[4]; mouse, in vivo, 12 mg/kg
  HA tire (reciprocal of the last dilution showing positive reaction): 2560
  PFC: 10333 ± 3008 per 10^6lymphocytes
[4]; mouse, in vivo, 21 mg/kg
  PFC and HA titre against SRBC antigen: did not show any significant change
[4]; mouse, in vivo, 23 mg/kg
  DTH response (%): 19.24 ± 10.5%
  HA tire (reciprocal of the last dilution showing positive reaction): 2560
  PFC: 11633 ± 3636 per 10^6lymphocytes
[4]; mouse, in vivo, 47 mg/kg
  DTH response (%): 17.75 ± 9.8%
  HA tire (reciprocal of the last dilution showing positive reaction): 1280
  PFC: 2800 ± 1288 per 10^6lymphocytes
[5]
  COX-2 inhibition: potent COX-1/COX-2 inhibitor
